# Experimental data: US7560480B2, “Alkyl-containing 5-acylindolinones, the preparation thereof and their use as medicaments” (Boehringer Ingelheim International GmbH, priority 2004, dated 2009)
# Columns and labels:
# db/db mice = assay: Oral glucose tolerance test; format: in vivo; details: fasted db/db mice, 2 g/kg glucose orally 30 minutes after the substance
# Description: Oral Glucose Tolerance Test
# Fasted db/db mice 7 to 9 weeks old (Janvier, France) are weighed and blood is taken from the tip of the tail. This blood is used for the first measurement of glucose on the basis of which the animals are randomised and divided into groups. The test substance to be tested may be given either orally or i.p. as a suspension in 0.5% Natrosol. 30 minutes after the administration of the substance the animals are given orally 2 g/kg glucose in a volume of 0.1 ml/100 g body weight dissolved in NaCl solution. Subsequently, the glucose values are determined from the tail blood using a glucometer (Ultra OneTouch, Lifescan) at specific time intervals [30, 60, 120 and 180 minutes after oral administration of the glucose].
# mice = assay: Tolerability after oral administration (animals' behaviour); format: in vivo; details: oral administration of 10 mg/kg
structure (smiles),measurement,setting,value
CC(=O)c1ccc2c(c1)/C(=C(/NCCC(=O)N1CCN(C)CC1)c1ccccc1)C(=O)N2 [Example 1.009],activity in the oral glucose tolerance test,db/db mice,significant activity
same,tolerability: changes in the animals' behaviour,mice,no changes were observed in the animals' behaviour
